{"source": "patent US20200360471A1", "about": "“METHODS OF TREATING AND PREVENTING VIRAL INFECTIONS” (priority 2017, published 2020)", "key": {"HPVS PsV": {"tested_on": "HPVS PsV", "conditions": "read-out: IC50, inhibition of uptake of HPVS PsV; PsV 1:6000 dilution, 293TT cells", "procedure": "Pseudovirus (PsV) of HPVS was prepared using method described by Buck et al, (Journal of Virology, January 2004; 751-757) and used as a model HPV in this study. The PsV stocks were prepared by co-transfecting human 293TT cells with HPVS viral plasmid p5Shell containing codon-modified papillomavirus capsid genes for L1 and L2 proteins, and pcLucF reporter plasmid containing the luciferase gene for detecting viral infection. The cell lysates containing the capsidized virus was used as the PsV stock. Optimal PsV dilution factor was determined based on the luciferase activity in 293TT cells infected with serially diluted HPVS PsV.\nData were collected on a Molecular Devices Flexstation 3 Microplate Reader using Softmax Pro v5.4.4. Data analysis was performed on Prism software using four parameter logistic model. […] Furin Inhibitor I was used as a positive control for HPVS PsV inhibition since it blocks the viral entry into host cells.\nTwo runs were performed for each dilution level."}, "TLR7 [1]": {"tested_on": "TLR7", "experiment": "Ongoing inflammation in PBMC cultures: imiquimod 3 hrs followed by omiganan 21 hrs", "format": "cell-based, human", "conditions": "imiquimod alone, PBMC", "procedure": "(§1) Primary cell cultures were prepared in RPMI including 5% autologous plasma. Isolated PBMC cells were cultured in 96-well plates at a density of 0.5×10^6cells/well at 37° C., under humidified 5% CO2.\n(§2) IL-1β, TNFα, IL-6 and IL-8 were measured simultaneously with a fixed electrochemoluminescence platform based on the sandwich ELISA principle of capture and detection antibodies, produced by MESO SCALE DISCOVERY (MSD, MESO SCALE QUICKPLEX SQ120). The applied assay was the V-PLEX PLUS pro-inflammatory cytokine panel II, including IL-1β, TNFα, IL-6 and IL-8. This assay includes manufacturer-provided control samples with indicated nominal values for comparison. These lyophilized controls, i.e. freeze-dried controls for IL-1β, TNFα, IL-6, IL-8, were prepared freshly at the time of use. QC samples were prepared from the calibrator at 3 different concentrations along the standard curve as multiple aliquots from a single batch and maintained at −20° C. Low, medium and high concentration controls were included in every multiplex assay run to control intra- and inter-assay variation. V-PLEX panels are specific for the detection of human chemokines and cytokines, and combinations have been validated by the manufacturer, to ensure no cross-reactivity.\nBriefly, PBMC primary cultures were prepared from 4 donors. […] The readouts for the following cytokine and chemokine release were measured: IL-1β, IL-2, IL-4, IL-6, IL-8 HA, IL-8, IL-12p70, IL-13, IFN-γ, and TNF-α were measured. The cultures were prepared in duplicate."}, "TLR3/RIG-1/Mda5": {"tested_on": "TLR3/RIG-1/Mda5", "experiment": "polyI:C-induced cytokine responses in PBMC cultures with peptide pre-treatment", "format": "cell-based, human", "conditions": "5 or 25 μg/mL peptide, 30 min pre-treatment, 24 hrs", "procedure": "as §1, §2\n(§3) IFNα was quantified by a sandwich ELISA based on specific capture and detection antibodies for various matrices (MABTECH), according to the manufacturer's instructions. QC samples were prepared from the calibrator at 3 different concentrations along the standard curve as multiple aliquots from a single batch and maintained at −20° C.\nas §3, with “IFNβ” for “IFNα”, “(PBL ASSAY SCIENCE),” for “(MABTECH),”, “C. freezer.” for “C.”\n(§4) Briefly, PBMC primary cultures were prepared from 4 healthy donors (2 males, 2 females) as described above. […] The cultures were prepared in duplicate and the readouts for pan-IFNα and IFNβ (ELISA) were measured once. Five-point concentration-response curves were constructed for the various treatment conditions in the PBMC cultures, freshly isolated from 4 subjects."}, "TLR7 [2]": {"tested_on": "TLR7", "experiment": "imiquimod-induced cytokine responses in PBMC cultures with peptide pre-treatment", "format": "cell-based, human", "procedure": "as §1, §2, §3\nas §3, with “IFNβ” for “IFNα”, “(PBL ASSAY SCIENCE),” for “(MABTECH),”, “C. freezer.” for “C.”\nas §4"}, "[3]": {"tested_on": "toll-like receptor 3 (TLR3) pathways / RIG-1/Mda5", "experiment": "Qualification of the polyI:C PBMC challenge (cytokine release, 24 hrs)", "format": "cell-based, human", "procedure": "Peripheral Blood Mononuclear Cells (PBMCs) were isolated from sodium heparinized blood samples from healthy donors using SEPMATE with LYMPHOPREP ([…] TECHNOLOGIES) based on ficoll density centrifugation. Primary cell cultures were prepared in RPMI including 5% autologous plasma. Isolated PBMC cells were cultured in 96-well plates at a density of 0.5×10^6cells/well at 37° C., under humidified 5% CO2.\nIL-1β, TNFα, IL-6 and IL-8 were measured simultaneously with a fixed electrochemoluminescence platform based on the sandwich ELISA principle of capture and detection antibodies, produced by MESO SCALE DISCOVERY (MSD, MESO SCALE QUICKPLEX SQ120). The applied assay was the V-PLEX PLUS pro-inflammatory cytokine panel II, including IL-1β, TNFα, IL-6 and IL-8. This assay includes manufacturer-provided control samples with indicated nominal values for comparison. These lyophilized controls, i.e. freeze-dried controls for IL-1β, TNFα, IL-6, IL-8, were prepared freshly at the time of use. […]\nIFNα was quantified by a sandwich ELISA based on specific capture and detection antibodies for various matrices (MABTECH), according to the manufacturer's instructions. […]\nIFNβ was quantified by a sandwich ELISA based on specific capture and detection antibodies for various matrices (PBL ASSAY SCIENCE), according to the manufacturer's instructions. […]"}, "[4]": {"conditions": "5 or 25 μg/mL peptide, 30 min pre-treatment, 24 hrs"}, "[5]": {"conditions": "right-shift of imiquimod concentration response curves"}}, "note": "Peptide text beside a SMILES is read from it. * marks the point of attachment. Decanoyl = CCCCCCCCCC(=O)*; CH2Cl = ClC*"}
{"compound": "CCCCCCCCCC(=O)N[C@@H](CCCN=C(N)N)C(=O)N[C@H](C(=O)N[C@@H](CCCCN)C(=O)N[C@@H](CCCN=C(N)N)C(=O)CCl)C(C)C", "note": "[Furin Inhibitor I, reference compound] (Decanoyl-RVKR-CH2Cl)", "values": [{"measurement": "IC50", "setting": "HPVS PsV", "value": 200, "unit": "nM"}]}
{"compound": "CC(C)Cn1cnc2c(N)nc3ccccc3c21", "note": "[Imiquimod, imiquimod]", "values": [{"measurement": "concentration-effect relationship for IL-6 and TNF-α", "setting": "TLR7 [1]", "value": "bell-shaped"}, {"measurement": "imiquimod concentration inducing IL-6 release", "setting": "TLR7 [1]", "value": "exceeding 0.4 μg/ml"}, {"measurement": "imiquimod concentration inducing IL-8 release", "setting": "TLR7 [1]", "value": "exceeding 0.4 μg/ml"}, {"measurement": "imiquimod concentration inducing TNF-α release", "setting": "TLR7 [1]", "value": "exceeding 0.4 μg/ml"}, {"measurement": "imiquimod concentration needed for IL-10 release", "setting": "TLR7 [1]", "value": "exceeding 2 μg/ml"}]}
{"compound": "LLGDFFRKSKEKIGKEFKRIVQRIKDFLRNLVPRTES (LLGDFFRKSKEKIGKEFKRIVQRIKDFLRNLVPRTES; LL-37 peptide) [antimicrobial peptide belonging to the cathelicidin family, synthesized by ANASPEC]", "values": [{"measurement": "IL-6 responses to polyI:C (TLR3/RIG-1/Mda5)", "setting": "TLR3/RIG-1/Mda5", "value": "did not significantly affect"}, {"measurement": "TNFα responses to polyI:C (TLR3/RIG-1/Mda5)", "setting": "TLR3/RIG-1/Mda5", "value": "did not significantly affect"}, {"measurement": "polyI:C-driven IL-1β release", "setting": "TLR3/RIG-1/Mda5", "value": "did not significantly affect"}, {"measurement": "spontaneous and polyI:C-driven IL-8 release", "setting": "TLR3/RIG-1/Mda5", "value": "strongly inhibited"}, {"measurement": "interferon responses induced by polyI:C stimulation", "setting": "TLR3/RIG-1/Mda5; PBMC of 4 donors", "value": "enhanced"}, {"measurement": "IL-6 responses to imiquimod (TLR7)", "setting": "TLR7 [2]; [4]", "value": "inhibited"}, {"measurement": "TNFα responses to imiquimod (TLR7)", "setting": "TLR7 [2]; [4]", "value": "inhibited"}, {"measurement": "interferon responses in the presence of imiquimod", "setting": "TLR7 [2]; 5 or 25 μg/mL peptide, 30 min pre-treatment, 24 hrs, PBMC of 4 donors", "value": "induced strong interferon responses"}, {"measurement": "IL-1(3 responses to imiquimod (TLR7))", "setting": "TLR7 [2]; [5]", "value": "inhibited"}, {"measurement": "IL-8 responses to imiquimod (TLR7)", "setting": "TLR7 [2]; [5]", "value": "inhibited"}]}
{"compound": "PolyI:C", "values": [{"measurement": "PBMC response (cytokines)", "setting": "[3]; absence of the transfection carrier Lyovec", "value": "mild PBMC response"}, {"measurement": "PBMC response (cytokines)", "setting": "[3]; presence of Lyovec transfection carrier", "value": "substantial polyI:C-driven responses"}]}
